pIC50: −log10 of the molar value.
Molecular target: T1, human acetyl-CoA carboxylase 2 (ACC2) (Homo sapiens, UniProt O00763)
T1 construct: The cDNA encoding amino acids 144 to 2458 of human acetyl-CoA carboxylase 2; made in house; host or cells: Sf9 insect cells (baculovirus, pFastBac1)
Experiment: Acetyl-CoA carboxylase enzyme assay (malonyl-CoA formation by LC/MS/MS)
Format: biochemical
Conditions: recombinant human ACC2 (aa 144-2458); read-out: IC50 ACC2
Method in brief: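 Malonyl-CoA formation was read by LC/MS/MS MRM against a [13C3]-malonyl-CoA internal standard, after acetic acid quench. The enzyme was baculovirus/Sf9-expressed human ACC2 residues 144–2458, given 15 minutes room-temperature compound preincubation in HEPES pH 7.5 buffer with MgCl2, citrate and DTT. Substrate solution held 50 μM acetyl-CoA, 120 μM ATP and 2 mM KHCO3.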

T1 sequence (O00763 144-2458): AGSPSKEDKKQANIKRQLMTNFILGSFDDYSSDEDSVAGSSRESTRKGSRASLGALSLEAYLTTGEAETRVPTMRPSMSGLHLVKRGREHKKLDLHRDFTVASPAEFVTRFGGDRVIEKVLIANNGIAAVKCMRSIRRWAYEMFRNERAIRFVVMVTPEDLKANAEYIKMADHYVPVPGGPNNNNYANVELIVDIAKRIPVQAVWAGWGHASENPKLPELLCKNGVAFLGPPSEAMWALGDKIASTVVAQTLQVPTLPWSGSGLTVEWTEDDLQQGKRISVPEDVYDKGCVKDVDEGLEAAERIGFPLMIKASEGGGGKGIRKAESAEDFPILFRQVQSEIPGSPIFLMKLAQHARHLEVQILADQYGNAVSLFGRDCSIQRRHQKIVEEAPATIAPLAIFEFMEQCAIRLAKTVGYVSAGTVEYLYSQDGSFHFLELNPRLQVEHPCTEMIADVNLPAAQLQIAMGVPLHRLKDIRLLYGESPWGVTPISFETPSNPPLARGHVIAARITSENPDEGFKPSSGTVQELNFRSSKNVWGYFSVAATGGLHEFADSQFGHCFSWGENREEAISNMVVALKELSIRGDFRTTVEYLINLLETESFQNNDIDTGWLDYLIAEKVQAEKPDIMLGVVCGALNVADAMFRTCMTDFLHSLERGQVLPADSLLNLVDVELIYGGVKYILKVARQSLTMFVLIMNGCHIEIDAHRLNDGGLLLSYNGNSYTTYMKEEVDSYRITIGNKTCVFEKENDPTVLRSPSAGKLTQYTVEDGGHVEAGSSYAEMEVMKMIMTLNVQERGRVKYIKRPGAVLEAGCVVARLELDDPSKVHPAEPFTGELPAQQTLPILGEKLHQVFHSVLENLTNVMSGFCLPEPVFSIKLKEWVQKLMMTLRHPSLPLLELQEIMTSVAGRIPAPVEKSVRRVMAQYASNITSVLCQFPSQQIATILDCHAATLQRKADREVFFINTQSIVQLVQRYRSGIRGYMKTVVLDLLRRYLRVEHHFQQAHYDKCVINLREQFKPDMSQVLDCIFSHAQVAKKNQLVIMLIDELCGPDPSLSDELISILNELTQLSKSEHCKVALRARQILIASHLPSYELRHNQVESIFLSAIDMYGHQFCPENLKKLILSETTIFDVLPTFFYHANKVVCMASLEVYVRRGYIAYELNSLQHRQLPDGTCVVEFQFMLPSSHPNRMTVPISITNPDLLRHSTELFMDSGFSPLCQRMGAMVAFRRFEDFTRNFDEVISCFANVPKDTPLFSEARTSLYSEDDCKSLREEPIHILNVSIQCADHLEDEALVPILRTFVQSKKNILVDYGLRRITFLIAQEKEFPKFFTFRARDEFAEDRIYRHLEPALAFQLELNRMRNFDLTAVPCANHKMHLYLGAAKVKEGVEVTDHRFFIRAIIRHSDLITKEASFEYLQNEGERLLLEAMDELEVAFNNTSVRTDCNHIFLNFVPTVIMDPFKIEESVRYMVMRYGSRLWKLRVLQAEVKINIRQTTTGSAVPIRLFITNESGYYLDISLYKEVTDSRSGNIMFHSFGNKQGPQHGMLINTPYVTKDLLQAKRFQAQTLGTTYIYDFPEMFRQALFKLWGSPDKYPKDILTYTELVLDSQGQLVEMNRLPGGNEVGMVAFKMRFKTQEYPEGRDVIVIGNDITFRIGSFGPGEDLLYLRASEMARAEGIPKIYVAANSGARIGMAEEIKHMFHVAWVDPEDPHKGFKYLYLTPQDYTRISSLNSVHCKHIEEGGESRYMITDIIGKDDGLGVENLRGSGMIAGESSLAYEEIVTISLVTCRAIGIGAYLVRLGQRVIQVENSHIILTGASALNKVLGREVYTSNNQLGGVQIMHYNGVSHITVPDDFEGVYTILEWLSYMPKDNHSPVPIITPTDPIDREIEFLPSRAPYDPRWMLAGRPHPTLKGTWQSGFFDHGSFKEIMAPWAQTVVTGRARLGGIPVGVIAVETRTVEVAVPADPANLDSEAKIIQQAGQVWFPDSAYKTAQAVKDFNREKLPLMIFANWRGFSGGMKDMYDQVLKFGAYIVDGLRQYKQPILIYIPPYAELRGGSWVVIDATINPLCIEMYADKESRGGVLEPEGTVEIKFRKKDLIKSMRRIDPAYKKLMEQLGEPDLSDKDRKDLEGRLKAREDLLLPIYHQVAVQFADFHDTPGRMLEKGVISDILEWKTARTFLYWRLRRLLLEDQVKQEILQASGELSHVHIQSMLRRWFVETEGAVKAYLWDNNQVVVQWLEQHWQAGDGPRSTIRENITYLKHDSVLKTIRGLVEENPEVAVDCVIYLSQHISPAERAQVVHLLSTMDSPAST

| pIC50 | SMILES |
| --- | --- |
| 7.46 | C[C@@H](NC(=O)C1CCC(NS(=O)(=O)c2cnc3c(c2)N[C@H](Cc2ccccc2)CS3)CC1)c1ccc(F)cc1 (stereo partly drawn) [Example 190, 4-((R)-2-benzyl-2,3-dihydro-1H-pyrido[2,3-b][1,4]thiazine-7-sulfonamido)-N-((R)-1-(4-fluorophenyl)ethyl)cyclohexanecarboxamide] |
| 6.82 | O=C([C@H]1CC[C@H](NS(=O)(=O)c2cnc3c(c2)NCCN3)CC1)N1CCNC[C@@H]1c1ccccc1 [Example 191, N-((1S,4r)-4-((S)-2-phenylpiperazine-1-carbonyl)cyclohexyl)-1,2,3,4-tetrahydropyrido[3,2-b]pyrazine-7-sulfonamide] |
| 7.82 | O=C([C@H]1CC[C@H](NS(=O)(=O)c2cnc3c(c2)NCCS3)CC1)N1CCNC[C@@H]1c1ccccc1 [Example 192, N-((1S,4r)-4-((S)-2-phenylpiperazine-1-carbonyl)cyclohexyl)-2,3-dihydro-1H-pyrido[2,3-b][1,4]thiazine-7-sulfonamide] |
| 7.82 | O=C([C@H]1CC[C@H](NS(=O)(=O)c2cnc3c(c2)NCCS3)CC1)N1CCOCC1c1ccccc1 (some centres unmarked) [Example 193, N-((1r,4r)-4-(3-phenylmorpholine-4-carbonyl)cyclohexyl)-2,3-dihydro-1H-pyrido[2,3-b][1,4]thiazine-7-sulfonamide] |
| 6.68 | O=C([C@H]1CC[C@H](NS(=O)(=O)c2cnc3c(c2)NCCN3)CC1)N1CCOCC1c1ccccc1 (some centres unmarked) [Example 194, N-((1r,4r)-4-(3-phenylmorpholine-4-carbonyl)cyclohexyl)-1,2,3,4-tetrahydropyrido[3,2-b]pyrazine-7-sulfonamide] |
| 6.47 | C[C@@H](NC(=O)[C@H]1CC[C@H](NS(=O)(=O)c2ccc3c(c2)NC(=O)CC3(C)C)CC1)c1ccc(F)cc1 [Example 195, (1r,4R)-4-(4,4-dimethyl-2-oxo-1,2,3,4-tetrahydroquinoline-7-sulfonamido)-N-((R)-1-(4-fluorophenyl)ethyl)cyclohexanecarboxamide] |
| 6.66 | C[C@@H](NC(=O)[C@H]1CC[C@H](NS(=O)(=O)c2ccc3c(c2)NCCC3(C)C)CC1)c1ccc(F)cc1 [Example 196, (1r,4R)-4-(4,4-dimethyl-1,2,3,4-tetrahydroquinoline-7-sulfonamido)-N-((R)-1-(4-fluorophenyl)ethyl)cyclohexanecarboxamide] |
| 7.40 | C[C@@H](NC(=O)[C@]1(C)CC[C@@H](NS(=O)(=O)c2cnc3c(c2)NCCN3)CC1)c1ccc(F)cc1 [Example 197, (1r,4R)-N-((R)-1-(4-fluorophenyl)ethyl)-1-methyl-4-(1,2,3,4-tetrahydropyrido[3,2-b]pyrazine-7-sulfonamido)cyclohexanecarboxamide] |
| < 4.46 | C[C@H](NC(=O)[C@H]1CC[C@@H](NS(=O)(=O)c2cnc3c(c2)NCCN3)CC1)c1ccc(F)cc1 [Example 198, (1s,4S)-N-((R)-1-(4-fluorophenyl)ethyl)-4-(1,2,3,4-tetrahydropyrido[3,2-b]pyrazine-7-sulfonamido)cyclohexanecarboxamide] |
| 7.12 | [2H]C1([2H])Nc2cc(S(=O)(=O)NC3CCC(C(=O)N[C@H](C)c4ccc(F)cc4)CC3)cnc2NC1([2H])[2H] (stereo partly drawn) [Example 199, (R)-N-(1-(4-fluorophenyl)ethyl)-4-(2,2,3,3-tetradeuterio-1,2,3,4-tetrahydropyrido[3,2-b]pyrazine-7-sulfonamido)cyclohexanecarboxamide] |
| 7.22 | CC(C)COC(=O)N1CCNc2ncc(S(=O)(=O)N[C@H]3CC[C@H](C(=O)N[C@H](C)c4ccc(F)cc4)CC3)cc21 [Example 200, isobutyl 7-(N-((1R,4r)-4-((R)-1-(4-fluorophenyl)ethylcarbamoyl)cyclohexyl)sulfamoyl)-3,4-dihydropyrido[3,2-b]pyrazine-1(2H)-carboxylate] |
| 7.10 | COCCNc1ccc2cc(S(=O)(=O)N[C@H]3CC[C@H](C(=O)N[C@H](C)c4ccc(F)cc4)CC3)ccc2n1 [Example 201, (1r,4R)-N-((R)-1-(4-fluorophenyl)ethyl)-4-(2-(2-methoxyethylamino)quinoline-6-sulfonamido)cyclohexanecarboxamide] |
| 7.70 | C[C@@H](NC(=O)[C@H]1CC[C@H](NS(=O)(=O)c2ccc3nc(-c4ccccc4)ccc3c2)CC1)c1ccc(F)cc1 [Example 202, (1r,4R)-N-((R)-1-(4-fluorophenyl)ethyl)-4-(2-phenylquinoline-6-sulfonamido)cyclohexanecarboxamide] |
| 6.52 | C[C@@H](NC(=O)[C@H]1CC[C@H](NS(=O)(=O)c2ccc3nc(NCCC(=O)O)ccc3c2)CC1)c1ccc(F)cc1 [Example 203, 3-(6-(N-((1R,4r)-4-((R)-1-(4-fluorophenyl)ethylcarbamoyl)cyclohexyl)sulfamoyl)quinolin-2-ylamino)propanoic acid] |
| 7.10 | CCOc1ccc2cc(S(=O)(=O)N[C@H]3CC[C@H](C(=O)N4CCNCC4c4ccccc4)CC3)ccc2n1 (some centres unmarked) [Example 204, 2-ethoxy-N-((1r,4r)-4-(2-phenylpiperazine-1-carbonyl)cyclohexyl)quinoline-6-sulfonamide] |
| 7.70 | CCOc1ccc2cc(S(=O)(=O)NC3CCC(C(=O)NC(CO)c4ccccc4)CC3)ccc2n1 [Example 205, (1r,4S)-4-(2-ethoxyquinoline-6-sulfonamido)-N-((S)-2-hydroxy-1-phenylethyl)cyclohexanecarboxamide] |
| 7.70 | CCOc1ccc2cc(S(=O)(=O)N[C@H]3CC[C@H](C(=O)N[C@@H](c4ccccc4)C(C)(C)O)CC3)ccc2n1 [Example 206, (1r,4S)-4-(2-ethoxyquinoline-6-sulfonamido)-N-((S)-2-hydroxy-2-methyl-1-phenylpropyl)cyclohexanecarboxamide] |
| 6.45 | COCCNC(=O)c1ccc2cc(S(=O)(=O)N[C@H]3CC[C@H](C(=O)N[C@H](C)c4ccc(F)cc4)CC3)ccc2n1 [Example 207, 6-(N-((1R,4r)-4-((R)-1-(4-fluorophenyl)ethylcarbamoyl)cyclohexyl)sulfamoyl)-N-(2-methoxyethyl)quinoline-2-carboxamide] |
| 7.70 | CCOC(=O)N1CCNc2ncc(S(=O)(=O)N[C@H]3CC[C@H](C(=O)N[C@H](C)c4ccc(F)cc4)CC3)cc21 [Example 209, ethyl 7-(N-((1R,4r)-4-((R)-1-(4-fluorophenyl)ethylcarbamoyl)cyclohexyl)sulfamoyl)-3,4-dihydropyrido[3,2-b]pyrazine-1(2H)-carboxylate] |
| 6.65 | C[C@@H](NC(=O)[C@H]1CC[C@H](NS(=O)(=O)c2cnc3c(c2)N(C(=O)OC2CCCCC2)CCN3)CC1)c1ccc(F)cc1 [Example 210, cyclohexyl 7-(N-((1R,4r)-4-((R)-1-(4-fluorophenyl)ethylcarbamoyl)cyclohexyl)sulfamoyl)-3,4-dihydropyrido[3,2-b]pyrazine-1(2H)-carboxylate] |
| 6.74 | CCOc1ccc2cc(S(=O)(=O)N[C@H]3CC[C@H](C(=O)N[C@H](CC(=O)OC(C)(C)C)c4ccccc4)CC3)ccc2n1 [Example 211, (R)-tert-butyl 3-((1r,4R)-4-(2-ethoxyquinoline-6-sulfonamido)cyclohexanecarboxamido)-3-phenylpropanoate] |
| 6.78 | CC(C)COC(=O)N1CCC(C)(C)c2ccc(S(=O)(=O)N[C@H]3CC[C@H](C(=O)N[C@H](C)c4ccc(F)cc4)CC3)cc21 [Example 212, isobutyl 7-(N-((1R,4r)-4-((R)-1-(4-fluorophenyl)ethylcarbamoyl)cyclohexyl)sulfamoyl)-4,4-dimethyl-3,4-dihydroquinoline-1(2H)-carboxylate] |
| 7.02 | C[C@@H](NC(=O)[C@H]1CC[C@H](NS(=O)(=O)c2ccc3nc(N4CCOCC4)ccc3c2)CC1)c1ccc(F)cc1 [Example 213, (1r,4R)-N-((R)-1-(4-fluorophenyl)ethyl)-4-(2-morpholinoquinoline-6-sulfonamido)cyclohexanecarboxamide] |
| 6.44 | CC(C)COC(=O)N1CCN(C(=O)OCC(C)C)c2cc(S(=O)(=O)N[C@H]3CC[C@H](C(=O)N[C@H](C)c4ccc(F)cc4)CC3)ccc21 [Example 214, diisobutyl 6-(N-((1R,4r)-4-((R)-1-(4-fluorophenyl)ethylcarbamoyl)cyclohexyl)sulfamoyl)-2,3-dihydroquinoxaline-1,4-dicarboxylate] |
| 6.90 | C[C@@H](NC(=O)[C@H]1CC[C@H](NS(=O)(=O)c2ccc3nc(NCCN(C)C)ccc3c2)CC1)c1ccc(F)cc1 [Example 215, (1r,4R)-4-(2-(2-(dimethylamino)ethylamino)quinoline-6-sulfonamido)-N-((R)-1-(4-fluorophenyl)ethyl)cyclohexanecarboxamide] |
| 6.74 | C[C@@H](NC(=O)[C@H]1CC[C@H](NS(=O)(=O)c2ccc3nc(N4CCCCC4)ccc3c2)CC1)c1ccc(F)cc1 [Example 216, (1r,4R)-N-((R)-1-(4-fluorophenyl)ethyl)-4-(2-(piperidin-1-yl)quinoline-6-sulfonamido)cyclohexanecarboxamide] |
| 7.82 | CC(C)COC(=O)N1CCNc2ccc(S(=O)(=O)N[C@H]3CC[C@H](C(=O)N[C@H](C)c4ccc(F)cc4)CC3)cc21 [Example 217, isobutyl 7-(N-((1R,4r)-4-((R)-1-(4-fluorophenyl)ethylcarbamoyl)cyclohexyl)sulfamoyl)-3,4-dihydroquinoxaline-1(2H)-carboxylate] |
| 7.70 | C[C@@H](NC(=O)[C@H]1CC[C@H](NS(=O)(=O)c2ccc3nc(-c4cccnc4)ccc3c2)CC1)c1ccc(F)cc1 [Example 218, (1r,4R)-N-((R)-1-(4-fluorophenyl)ethyl)-4-(2-(pyridin-3-yl)quinoline-6-sulfonamido)cyclohexanecarboxamide] |
| 6.31 | C[C@@H](NC(=O)[C@H]1CC[C@H](NS(=O)(=O)c2ccc3nc(CCC(=O)O)ccc3c2)CC1)c1ccc(F)cc1 [Example 219, 3-(6-(N-((1R,4r)-4-((R)-1-(4-fluorophenyl)ethylcarbamoyl)cyclohexyl)sulfamoyl)quinolin-2-yl)propanoic acid] |

— patent US8697739B2, “Bicyclic acetyl-CoA carboxylase inhibitors and uses thereof” (Novartis AG, priority 2010, dated 2014)
